Series [1] in a line: Drug uptake in human A549 cells overexpressing GLUT1 assessed as increase in fluorescence intensity at 25 uM measured after 1 hr at 37 degreeC by DAPI staining based confocal fluorescence microscopic analysis. It is filed as ADME, cell-based. As to conditions: a549, 1 h; call rule not given here.
The nature of series [2]: Drug uptake in human A549 cells overexpressing GLUT1 assessed as increase in fluorescence intensity at 25 uM measured after 1 hr by DAPI staining based confocal fluorescence microscopic analysis. The class given is ADME, cell-based. The settings on record: a549, 1 h.
A short description of series [3]: Cytotoxicity against human BEAS-2B cells assessed as reduction in cell viability after 48 hrs by MTT assay. It is filed as toxicity, cell-based. For orientation: Tetrazolium dyes change colour on reduction, which living cells bring about.
Another series deals with A549. The experiment in a line: Cytotoxicity against human A549 cells assessed as reduction in cell viability after 48 hrs by MTT assay. It is filed as functional, cell-based. The settings on record: A549, 48 h.
The nature of series [4]: Selectivity index, ratio of IC50 for cytotoxicity against human BEAS-2B cells to IC50 for cytotoxicity against human A549 cells. As to conditions: BEAS-2B cells and A549 cells, read-out: Ratio IC50. It is filed as toxicity, cell-based.

Molecules are shown by their SMILES.

Usually IC50 stands for the concentration that inhibits the measured activity by half.

Consider `CC[N+]1=C(/C=C/C=C/C=C2/N(CCCCCC(=O)NCCOCCOC3O[C@@H](CO)[C@H](O)[C@@H](O)[C@@H]3O[C@H]3O[C@H](CO)[C@@H](O)[C@H](OC(N)=O)[C@@H]3O)c3ccc(S(=O)(=O)O)cc3C2(C)C)C(C)(C)c2cc(S(=O)(=O)[O-])ccc21` (stereo partly drawn), for which the Drug uptake result in series [1] and in series [2] was “Active” each time.
As to `CC(=O)OC[C@H]1OC(OCCCCCC(=O)Nc2ccn(C3OC(CO)C(O)C3(F)F)c(=O)n2)[C@H](O)[C@H](O)[C@H]1O` (stereo partly drawn), the IC50 at 48 h in series [3] is 5430 nM. Besides, the IC50 with A549 came to 260 nM. In series [4], the selectivity ratio turned out to be 20.9.
Turning to `NC(=O)O[C@@H]1[C@H](O)[C@@H](O[C@H]2C(OCCCCCC(=O)Nc3ccn(C4OC(CO)C(O)C4(F)F)c(=O)n3)O[C@H](CO)[C@H](O)[C@H]2O)O[C@H](CO)[C@H]1O` (stereo partly drawn), in series [3], the IC50 at 48 h stood at 2600 nM. Further, the half-maximal inhibitory concentration (IC50) in the series with A549 was 130 nM. Moreover, the selectivity ratio in series [4] turned out to be 20.
On to `Nc1ccn([C@@H]2O[C@H](CO)[C@@H](O)C2(F)F)c(=O)n1` [GEMCITABINE], for which the IC50 at 48 h in series [3] worked out at 37 nM. Further, the IC50 in the series on A549 was determined as 44 nM. The selectivity ratio in series [4] is 0.88.
With `CC(=O)OC[C@H]1OC(OCCCCCC(=O)Nc2ccn(C3OC(CO)C(O)C3(F)F)c(=O)n2)[C@@H](O)[C@@H](O)[C@@H]1O` (stereo partly drawn), the IC50 at 48 h in series [3] is 7780 nM. Also, the IC50 in the series with A549 is 460 nM.
For `CC[N+]1=C(/C=C/C=C/C=C2/N(CCCCCC(=O)NCCOCCOC3O[C@@H](CO)[C@@H](O)[C@H](O)[C@@H]3O[C@H]3O[C@H](CO)[C@@H](O)[C@H](OC(N)=O)[C@@H]3O)c3ccc(S(=O)(=O)O)cc3C2(C)C)C(C)(C)c2cc(S(=O)(=O)[O-])ccc21` (stereo partly drawn), the Drug uptake result in series [2] was “Active”.
Take `CC(=O)OC[C@H]1OC(OCCCCCC(=O)Nc2ccn(C3OC(CO)C(O)C3(F)F)c(=O)n2)[C@@H](O)[C@@H](OC(N)=O)[C@@H]1O` (stereo partly drawn): in series [3], the IC50 at 48 h was found to be 7770 nM. Besides, the IC50 with A549 stood at 920 nM.
Take `CC[N+]1=C(/C=C/C=C/C=C2/N(CCCCCC(=O)NCCOCCOC3O[C@H](CO)[C@H](O)[C@@H](O)[C@H]3O)c3ccc(S(=O)(=O)O)cc3C2(C)C)C(C)(C)c2cc(S(=O)(=O)[O-])ccc21` (stereo partly drawn): the Drug uptake entry in series [1] and in series [2] was “Active” in each case.

(Values after ChEMBL document CHEMBL5126504, “A gulose moiety contributes to the belomycin (BLM) disaccharide selective targeting to lung cancer cells” (Eur J Med Chem, 2021).)
